Where a name gives a salt, the structure may show the parent alone. Activity calls are given as the source filed them. For most assays here, no stated cut-off is given here; in the data, actives have a measured Kd and inactives only a lower limit.
Tests used:
[1] = biological target: T1, Phenylalanine--tRNA ligase beta subunit (Homo sapiens, UniProt Q9NSD9)
T1 sequence (Q9NSD9 whole entry): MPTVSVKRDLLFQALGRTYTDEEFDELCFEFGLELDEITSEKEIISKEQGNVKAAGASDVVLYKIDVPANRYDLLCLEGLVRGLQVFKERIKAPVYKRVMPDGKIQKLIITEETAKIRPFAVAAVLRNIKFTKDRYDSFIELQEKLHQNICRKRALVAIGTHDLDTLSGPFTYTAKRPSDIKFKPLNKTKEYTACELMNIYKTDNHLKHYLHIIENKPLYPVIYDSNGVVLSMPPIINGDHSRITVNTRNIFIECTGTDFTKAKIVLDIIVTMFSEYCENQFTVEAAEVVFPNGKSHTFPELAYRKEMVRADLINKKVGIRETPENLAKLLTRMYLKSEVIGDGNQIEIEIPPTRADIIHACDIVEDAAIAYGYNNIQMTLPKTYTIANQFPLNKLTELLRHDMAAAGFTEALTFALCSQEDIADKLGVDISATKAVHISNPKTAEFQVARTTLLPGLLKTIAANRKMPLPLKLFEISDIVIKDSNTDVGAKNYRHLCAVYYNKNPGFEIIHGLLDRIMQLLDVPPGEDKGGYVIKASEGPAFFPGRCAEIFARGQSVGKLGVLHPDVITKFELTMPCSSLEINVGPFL

[2] = biological target: Mitogen-activated protein kinase kinase kinase kinase 5 (Homo sapiens, UniProt Q9Y4K4)
Chain of Mitogen-activated protein kinase kinase kinase kinase 5 (Q9Y4K4 whole entry): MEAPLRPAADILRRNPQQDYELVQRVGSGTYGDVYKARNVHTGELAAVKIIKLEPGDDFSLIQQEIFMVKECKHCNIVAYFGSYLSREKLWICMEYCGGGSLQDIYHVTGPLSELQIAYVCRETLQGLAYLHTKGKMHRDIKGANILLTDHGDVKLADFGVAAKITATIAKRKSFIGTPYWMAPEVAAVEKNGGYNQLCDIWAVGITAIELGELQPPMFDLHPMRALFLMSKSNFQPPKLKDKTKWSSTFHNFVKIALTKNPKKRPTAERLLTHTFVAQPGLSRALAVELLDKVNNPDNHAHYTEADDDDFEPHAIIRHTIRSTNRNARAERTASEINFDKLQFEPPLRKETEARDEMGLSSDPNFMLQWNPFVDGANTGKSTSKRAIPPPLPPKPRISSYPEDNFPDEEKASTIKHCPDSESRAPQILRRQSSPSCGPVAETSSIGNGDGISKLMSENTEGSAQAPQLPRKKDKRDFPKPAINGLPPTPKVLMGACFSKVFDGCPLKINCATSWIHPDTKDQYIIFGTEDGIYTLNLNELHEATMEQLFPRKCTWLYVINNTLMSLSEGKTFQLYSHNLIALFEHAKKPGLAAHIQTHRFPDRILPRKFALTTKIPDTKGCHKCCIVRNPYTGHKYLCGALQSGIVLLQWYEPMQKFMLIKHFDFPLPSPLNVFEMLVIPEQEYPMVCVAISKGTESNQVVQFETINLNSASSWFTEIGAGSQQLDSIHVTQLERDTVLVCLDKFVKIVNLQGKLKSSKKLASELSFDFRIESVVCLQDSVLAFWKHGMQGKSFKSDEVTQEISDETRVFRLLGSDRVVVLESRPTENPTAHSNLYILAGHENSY

[3] = biological target: Serine/threonine-protein kinase N2 (Homo sapiens, UniProt Q16513)
Chain of Serine/threonine-protein kinase N2 (Q16513 whole entry): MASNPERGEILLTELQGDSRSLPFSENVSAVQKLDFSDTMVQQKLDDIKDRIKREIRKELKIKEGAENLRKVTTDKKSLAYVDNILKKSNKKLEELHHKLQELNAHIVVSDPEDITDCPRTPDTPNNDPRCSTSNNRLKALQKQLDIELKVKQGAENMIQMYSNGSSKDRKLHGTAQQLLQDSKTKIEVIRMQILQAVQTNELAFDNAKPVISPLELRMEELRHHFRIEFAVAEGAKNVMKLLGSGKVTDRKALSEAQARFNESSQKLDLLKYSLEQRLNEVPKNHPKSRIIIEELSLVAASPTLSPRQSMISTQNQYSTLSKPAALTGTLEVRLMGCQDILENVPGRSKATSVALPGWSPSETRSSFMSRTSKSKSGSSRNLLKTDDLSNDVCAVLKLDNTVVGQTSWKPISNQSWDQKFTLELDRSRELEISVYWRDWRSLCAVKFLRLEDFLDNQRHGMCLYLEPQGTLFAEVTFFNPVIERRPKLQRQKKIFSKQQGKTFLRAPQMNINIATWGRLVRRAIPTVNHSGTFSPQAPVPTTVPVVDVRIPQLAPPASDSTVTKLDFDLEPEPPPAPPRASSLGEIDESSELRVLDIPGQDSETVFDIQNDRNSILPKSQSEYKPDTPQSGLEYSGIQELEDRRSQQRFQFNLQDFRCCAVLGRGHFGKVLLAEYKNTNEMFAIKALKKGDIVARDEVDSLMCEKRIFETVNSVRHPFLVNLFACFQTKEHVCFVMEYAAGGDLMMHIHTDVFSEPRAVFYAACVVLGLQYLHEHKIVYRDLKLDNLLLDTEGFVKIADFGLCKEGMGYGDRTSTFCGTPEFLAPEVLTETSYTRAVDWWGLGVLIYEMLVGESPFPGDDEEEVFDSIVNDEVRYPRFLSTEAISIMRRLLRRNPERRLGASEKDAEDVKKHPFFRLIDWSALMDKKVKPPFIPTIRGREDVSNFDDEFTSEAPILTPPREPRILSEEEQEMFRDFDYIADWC

[4] = biological target: T2, Ephrin type-B receptor 4 (Homo sapiens, UniProt P54760)
T2 sequence (P54760 whole entry): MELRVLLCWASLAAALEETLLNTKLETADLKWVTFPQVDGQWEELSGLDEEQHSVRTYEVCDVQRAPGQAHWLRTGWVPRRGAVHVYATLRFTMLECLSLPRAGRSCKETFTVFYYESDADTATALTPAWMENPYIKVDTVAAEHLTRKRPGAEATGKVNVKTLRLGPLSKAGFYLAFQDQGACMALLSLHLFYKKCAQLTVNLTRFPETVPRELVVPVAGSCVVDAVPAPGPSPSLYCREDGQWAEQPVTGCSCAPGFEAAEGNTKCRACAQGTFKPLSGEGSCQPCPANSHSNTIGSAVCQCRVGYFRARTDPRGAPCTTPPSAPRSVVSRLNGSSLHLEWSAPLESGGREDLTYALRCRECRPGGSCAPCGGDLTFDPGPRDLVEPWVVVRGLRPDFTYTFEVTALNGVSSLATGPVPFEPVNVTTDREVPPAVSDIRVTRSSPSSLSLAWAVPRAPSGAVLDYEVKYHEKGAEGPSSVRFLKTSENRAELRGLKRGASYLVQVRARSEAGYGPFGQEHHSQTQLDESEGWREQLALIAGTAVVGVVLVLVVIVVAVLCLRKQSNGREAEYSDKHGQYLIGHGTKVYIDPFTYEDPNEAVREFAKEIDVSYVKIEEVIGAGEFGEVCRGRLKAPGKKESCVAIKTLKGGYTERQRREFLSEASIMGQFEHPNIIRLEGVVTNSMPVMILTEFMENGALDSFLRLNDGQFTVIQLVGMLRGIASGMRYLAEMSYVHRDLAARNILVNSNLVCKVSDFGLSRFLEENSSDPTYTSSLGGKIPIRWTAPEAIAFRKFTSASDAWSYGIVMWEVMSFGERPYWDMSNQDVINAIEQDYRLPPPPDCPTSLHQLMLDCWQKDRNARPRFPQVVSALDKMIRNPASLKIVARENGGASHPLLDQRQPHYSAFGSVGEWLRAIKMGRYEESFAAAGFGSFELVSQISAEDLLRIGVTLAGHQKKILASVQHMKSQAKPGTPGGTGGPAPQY

[5] = biological target: cAMP-dependent protein kinase catalytic subunit alpha (Homo sapiens, UniProt P17612)
[6] = biological target: Tyrosine-protein kinase HCK (Homo sapiens, UniProt P08631)
Chain of Tyrosine-protein kinase HCK (P08631 whole entry): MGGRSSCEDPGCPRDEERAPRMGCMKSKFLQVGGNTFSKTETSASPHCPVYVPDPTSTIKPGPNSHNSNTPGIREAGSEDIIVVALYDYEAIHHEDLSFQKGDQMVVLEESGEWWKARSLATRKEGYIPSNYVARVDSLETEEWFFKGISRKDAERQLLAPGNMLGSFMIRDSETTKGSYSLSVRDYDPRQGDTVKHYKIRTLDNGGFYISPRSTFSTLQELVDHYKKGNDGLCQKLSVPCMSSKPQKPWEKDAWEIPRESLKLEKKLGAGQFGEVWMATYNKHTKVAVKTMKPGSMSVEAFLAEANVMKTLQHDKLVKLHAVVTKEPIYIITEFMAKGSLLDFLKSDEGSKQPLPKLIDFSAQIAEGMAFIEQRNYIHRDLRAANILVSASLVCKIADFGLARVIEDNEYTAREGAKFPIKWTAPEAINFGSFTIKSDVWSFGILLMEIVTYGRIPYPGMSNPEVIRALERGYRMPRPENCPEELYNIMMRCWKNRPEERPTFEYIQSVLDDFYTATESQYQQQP

[7] = biological target: GTP-binding nuclear protein Ran (Homo sapiens, UniProt P62826)
[8] = biological target: T3, Signal recognition particle receptor subunit alpha (Homo sapiens, UniProt P08240)
T3 sequence (P08240 whole entry): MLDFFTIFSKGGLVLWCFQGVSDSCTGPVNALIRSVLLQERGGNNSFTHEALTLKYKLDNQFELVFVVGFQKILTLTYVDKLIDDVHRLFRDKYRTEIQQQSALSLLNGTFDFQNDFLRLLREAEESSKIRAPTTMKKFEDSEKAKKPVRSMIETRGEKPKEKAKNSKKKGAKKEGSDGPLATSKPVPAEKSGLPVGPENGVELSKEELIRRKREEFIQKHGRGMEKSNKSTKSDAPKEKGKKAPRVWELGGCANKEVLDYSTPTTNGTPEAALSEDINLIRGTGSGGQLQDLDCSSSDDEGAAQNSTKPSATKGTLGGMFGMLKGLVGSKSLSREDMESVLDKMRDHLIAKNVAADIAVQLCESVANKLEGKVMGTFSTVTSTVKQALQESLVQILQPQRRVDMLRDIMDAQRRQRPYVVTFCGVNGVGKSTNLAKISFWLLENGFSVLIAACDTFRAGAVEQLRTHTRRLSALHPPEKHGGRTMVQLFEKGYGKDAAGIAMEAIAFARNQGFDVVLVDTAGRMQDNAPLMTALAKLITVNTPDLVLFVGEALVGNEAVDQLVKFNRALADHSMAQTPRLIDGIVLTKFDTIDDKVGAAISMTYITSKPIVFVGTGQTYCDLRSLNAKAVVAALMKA

[9] = biological target: Serine/threonine-protein kinase 10 (Homo sapiens, UniProt O94804)
Chain of Serine/threonine-protein kinase 10 (O94804 whole entry): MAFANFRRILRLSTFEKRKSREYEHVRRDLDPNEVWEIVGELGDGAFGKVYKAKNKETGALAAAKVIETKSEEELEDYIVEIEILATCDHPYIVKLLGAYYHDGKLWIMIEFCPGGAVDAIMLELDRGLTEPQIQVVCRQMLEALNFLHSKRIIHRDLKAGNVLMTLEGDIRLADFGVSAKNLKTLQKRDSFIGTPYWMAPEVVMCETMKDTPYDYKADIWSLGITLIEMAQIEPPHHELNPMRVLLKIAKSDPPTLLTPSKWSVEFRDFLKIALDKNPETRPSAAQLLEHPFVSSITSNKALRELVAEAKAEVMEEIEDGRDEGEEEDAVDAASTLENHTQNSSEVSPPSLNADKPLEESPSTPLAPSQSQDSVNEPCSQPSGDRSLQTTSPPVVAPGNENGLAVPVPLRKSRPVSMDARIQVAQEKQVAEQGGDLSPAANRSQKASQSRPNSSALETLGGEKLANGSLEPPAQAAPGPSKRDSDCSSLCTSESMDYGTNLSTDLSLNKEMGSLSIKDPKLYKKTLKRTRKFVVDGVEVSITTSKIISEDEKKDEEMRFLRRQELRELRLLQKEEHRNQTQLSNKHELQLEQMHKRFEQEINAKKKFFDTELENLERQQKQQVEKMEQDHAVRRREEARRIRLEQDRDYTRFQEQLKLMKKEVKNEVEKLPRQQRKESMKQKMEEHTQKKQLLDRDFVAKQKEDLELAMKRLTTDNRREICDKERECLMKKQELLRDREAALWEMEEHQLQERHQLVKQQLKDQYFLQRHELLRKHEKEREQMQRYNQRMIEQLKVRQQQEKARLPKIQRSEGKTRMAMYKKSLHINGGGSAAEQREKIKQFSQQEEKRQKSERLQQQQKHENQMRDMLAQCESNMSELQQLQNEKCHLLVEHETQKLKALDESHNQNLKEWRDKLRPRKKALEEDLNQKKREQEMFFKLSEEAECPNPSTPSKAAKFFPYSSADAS

[10] = biological target: Tyrosine-protein kinase SYK (Homo sapiens, UniProt P43405)

Measured: Kd

COCC(=O)NC/C=C/c1ccc2ncnc(Nc3ccc(Oc4ccc(C)nc4)c(C)c3)c2c1 [CP-724714]
inactive: [1] > 30 µM | [2] > 30 µM | [3] > 30 µM | [4] > 30 µM | [5] > 30 µM | [6] > 30 µM | [7] > 30 µM | [8] > 30 µM | [9] > 30 µM | [10] > 30 µM

C#Cc1cccc(Nc2ncnc3cc(OC)c(OCCCCCCC(=O)NO)cc23)c1 [CUDC-101]
inactive: [1] > 30 µM | [2] > 30 µM | [3] > 30 µM | [4] > 30 µM | [5] > 30 µM | [6] > 30 µM | [7] > 30 µM | [8] > 30 µM | [10] > 30 µM
active: [9] 57.5 µM

CCS(=O)(=O)N1CCN(c2ccc(Nc3ncc(C(N)=O)c(NC4CC4)n3)cc2)CC1 [Cerdulatinib Hydrochloride]
active: [2] 19.2 µM | [10] 0.44 µM
inactive: [1] > 30 µM | [3] > 30 µM | [4] > 30 µM | [5] > 30 µM | [6] > 30 µM | [7] > 30 µM | [8] > 30 µM | [9] > 30 µM

Cc1nc2cc(-n3ncc(C(=O)c4cc5ccccc5[nH]4)c3N)ccc2[nH]1 [FGFR INHIBITOR DEBIO 1347]
inactive: [1] > 30 µM | [2] > 30 µM | [3] > 30 µM | [4] > 30 µM | [5] > 30 µM | [6] > 30 µM | [7] > 30 µM | [8] > 30 µM | [9] > 30 µM | [10] > 30 µM

O=C(Nc1nc2cccc(-c3ccc(CN4CCS(=O)(=O)CC4)cc3)n2n1)C1CC1 [FILGOTINIB]
inactive: [1] > 30 µM | [2] > 30 µM | [3] > 30 µM | [4] > 30 µM | [5] > 30 µM | [6] > 30 µM | [7] > 30 µM | [8] > 30 µM | [10] > 30 µM
active: [9] 1.91 µM

Cc1cccc(-c2nn3c(c2-c2ccnc4ccc(C(N)=O)cc24)CCC3)n1 [GALUNISERTIB]
inactive: [1] > 30 µM | [2] > 30 µM | [3] > 30 µM | [4] > 30 µM | [5] > 30 µM | [6] > 30 µM | [7] > 30 µM | [8] > 30 µM | [9] > 30 µM | [10] > 30 µM

COc1ccc(S(=O)(=O)N(C(C)=O)c2ccccc2/C=C/c2cc[n+]([O-])cc2)cc1 [HMN-214]
inactive: [1] > 30 µM | [2] > 30 µM | [3] > 30 µM | [4] > 30 µM | [5] > 30 µM | [6] > 30 µM | [7] > 30 µM | [8] > 30 µM | [9] > 30 µM | [10] > 30 µM

O=C(Nc1cc(C(F)(F)F)cc(C(F)(F)F)c1)c1cc(Cl)ccc1O [IMD-0354]
inactive: [1] > 30 µM | [3] > 30 µM | [4] > 30 µM | [5] > 30 µM | [6] > 30 µM | [7] > 30 µM | [8] > 30 µM | [9] > 30 µM | [10] > 30 µM
active: [2] 1.46 µM

CNC(=O)c1cccc2cc(Oc3ccnc4cc(OCC5(N)CC5)c(OC)cc34)ccc12 [LUCITANIB]
inactive: [1] > 30 µM | [2] > 30 µM | [3] > 30 µM | [4] > 30 µM | [5] > 30 µM | [6] > 30 µM | [7] > 30 µM | [8] > 30 µM | [9] > 30 µM | [10] > 30 µM

CNC(=O)c1nn(C)c2c1C(C)(C)Cc1cnc(Nc3ccc(N4CCN(C)CC4)cc3)nc1-2 [MILCICLIB]
inactive: [1] > 30 µM | [3] > 30 µM | [5] > 30 µM | [7] > 30 µM | [8] > 30 µM | [9] > 30 µM | [10] > 30 µM
active: [2] 10 µM | [4] 1.07 µM | [6] 1.32 µM

— ChEMBL document CHEMBL3991601, “The target landscape of clinical kinase drugs” (Science, 2017)
